In the supplement of paper PMC11061612:

What was measured:
Test in all cases: Bliss excess, mean over the matrix (fraction); higher = more synergy
[1] = test system: NMC-G1 (Low Grade Glioma)
Summary of the method: (§1)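 After 24 hours at 37°C and 5% CO2 in 1536-well plates, cells in DMEM/F12 or RPMI plus 10% FBS received two-drug dose matrices for 72 hours. Viability came from CellTiter-Glo 2.0 luminescence and was scaled as inhibition, anchored at 0 by vehicle wells and at 1 by blank wells. Combination Emax is taken as the second-highest inhibition in the matrix, and Bliss excess as the observed combination effect less EA + EB − EA·EB, with EA and EB the single-agent effects.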

[2] = test system: TUR (Acute Myeloid Leukemia)
Summary of the method: as §1

[3] = test system: MONO-MAC-6 (Acute Myeloid Leukemia)
Summary of the method: as §1

[4] = test system: NCI-H1341 (Small Cell Lung Carcinoma)
Summary of the method: as §1

AM-38 (Glioblastoma) = test system: AM-38 (Glioblastoma)
Summary of the method: as §1

[5] = test system: IA-LM (Non-Small Cell Lung Carcinoma)
Summary of the method: as §1

SK-N-SH (Neuroblastoma) = test system: SK-N-SH (Neuroblastoma)
Summary of the method: as §1

[6] = test system: Raji (Burkitt's Lymphoma)
Summary of the method: as §1

[7] = test system: MOLT-13 (T-Lymphoblastic Leukemia)
Summary of the method: as §1

[8] = test system: COR-L88 (Small Cell Lung Carcinoma)
Summary of the method: as §1

[9] = test system: DBTRG-05MG (Glioblastoma)
Summary of the method: as §1

[10] = test system: T84 (Colorectal Carcinoma)
Summary of the method: as §1

[11] = test system: HT-1080 (Other Solid Carcinomas)
Summary of the method: as §1

[12] = test system: SAT (Head and Neck Carcinoma)
Summary of the method: as §1

[13] = test system: BHT-101 (Thyroid Gland Carcinoma)
Summary of the method: as §1

[14] = test system: MS-1 (Small Cell Lung Carcinoma)
Summary of the method: as §1

IST-MEL1 (Melanoma) = test system: IST-MEL1 (Melanoma)
Summary of the method: as §1

NCI-H226 (Mesothelioma) = test system: NCI-H226 (Mesothelioma)
Summary of the method: as §1

[15] = test system: SiHa (Cervical Carcinoma)
Summary of the method: as §1

[16] = test system: SNU-C2B (Colorectal Carcinoma)
Summary of the method: as §1

Structure (SMILES) | Bliss excess [1] | Bliss excess [2] | Bliss excess [3] | Bliss excess [4] | Bliss excess (AM-38 (Glioblastoma)) | Bliss excess [5] | Bliss excess (SK-N-SH (Neuroblastoma)) | Bliss excess [6] | Bliss excess [7] | Bliss excess [8] | Bliss excess [9] | Bliss excess [10] | Bliss excess [11] | Bliss excess [12] | Bliss excess [13] | Bliss excess [14] | Bliss excess (IST-MEL1 (Melanoma)) | Bliss excess (NCI-H226 (Mesothelioma)) | Bliss excess [15] | Bliss excess [16]
CCN(CCO)CCCOc1ccc2c(Nc3cc(CC(=O)Nc4cccc(F)c4)[nH]n3)ncnc2c1 [AZD2811] + O=C(c1cc(Cc2n[nH]c(=O)c3ccccc23)ccc1F)N1CCN(C(=O)C2CC2)CC1 [Olaparib] (first compound max 1 µM, 7x7, partner max 10 µM) | -0.025 | 0.0637 | 0.0056 | 0.0125 | 0.0471 | -0.031 | -0.0701 | 0.0005 | -0.0146 | -0.0475 | -0.0179 | -0.0067 | -0.0043 | -0.0469 | -0.0193 | 0.0107 | 0.0192 | -0.0448 | -0.0053 | -0.014
CN(CCO)CC[C@H](CSc1ccccc1)Nc1ccc(S(=O)(=O)NC(=O)c2ccc(N3CCC([C@@H](O)c4ccccc4-c4ccc(Cl)cc4)CC3)cc2)cc1S(=O)(=O)C(F)(F)F [AZD4320] + C1CN(CCC1(C(=O)N[C@@H](CCO)C2=CC=C(C=C2)Cl)N)C3=NC=NC4=C3C=CN4 [Capivasertib] (first compound max 1 µM, 7x7, partner max 3 µM) | -0.0838 | -0.0062 | -0.0438 | -0.0203 | -0.0484 | -0.0888 | -0.0363 | -0.0109 | -0.0371 | 0.0065 | -0.047 | -0.0269 | -0.0794 | -0.0363 | 0.0092 | -0.0037 | -0.0226 | -0.0589 | -0.0476 | -0.0305
CN(CCO)CC[C@H](CSc1ccccc1)Nc1ccc(S(=O)(=O)NC(=O)c2ccc(N3CCC([C@@H](O)c4ccccc4-c4ccc(Cl)cc4)CC3)cc2)cc1S(=O)(=O)C(F)(F)F [AZD4320] + C[C@@H]1COCCN1C2=NC(=NC(=C2)C3(CC3)[S@](=N)(=O)C)C4=C5C=CNC5=NC=C4 [AZD6738] (first compound max 1 µM, 7x7, partner max 10 µM) | -0.0724 | -0.014 | 0.0003 | -0.0017 | 0.0052 | -0.0404 | -0.0586 | 0.0056 | -0.0057 | 0.0079 | -0.0221 | -0.0344 | 0.0171 | – | -0.0067 | -0.0085 | -0.0336 | -0.0819 | -0.0492 | -0.0292
Cc1c2c(nn1C)CSCc1cc(n(C)n1)CSc1cc(c3ccccc3c1)OCCCc1c(C(=O)O)n(C)c3c-2c(Cl)ccc13 [AZD5991] + C1CN(CCC1(C(=O)N[C@@H](CCO)C2=CC=C(C=C2)Cl)N)C3=NC=NC4=C3C=CN4 [Capivasertib] (first compound max 1 µM, 7x7, partner max 3 µM) | -0.0172 | 0.0937 | 0.0378 | 0.0609 | 0.0026 | -0.021 | 0.011 | 0.0312 | -0.0135 | -0.0058 | -0.0215 | -0.0185 | -0.0594 | -0.0072 | 0.0332 | 0.0265 | 0.0025 | -0.0473 | – | -0.0161
Cc1c2c(nn1C)CSCc1cc(n(C)n1)CSc1cc(c3ccccc3c1)OCCCc1c(C(=O)O)n(C)c3c-2c(Cl)ccc13 [AZD5991] + C[C@@H](Nc1cc(F)cc(F)c1)c1cc(C(=O)N(C)C)cc2c(=O)cc(N3CCOCC3)oc12 [AZD8186] (first compound max 1 µM, 7x7, partner max 3 µM) | -0.059 | 0.0047 | 0.0143 | 0.0352 | -0.0352 | -0.0274 | -0.0094 | 0.0164 | -0.0116 | -0.0524 | 0.0008 | – | -0.0338 | -0.0731 | 0.0094 | -0.0481 | -0.0184 | -0.0268 | 0.0044 | -0.0337
Cc1c2c(nn1C)CSCc1cc(n(C)n1)CSc1cc(c3ccccc3c1)OCCCc1c(C(=O)O)n(C)c3c-2c(Cl)ccc13 [AZD5991] + Cn1cnc2c(F)c(Nc3ccc(Br)cc3Cl)c(C(=O)NOCCO)cc21 [Selumetinib] (first compound max 1 µM, 7x7, partner max 3 µM) | -0.0243 | 0.0408 | 0.0117 | 0.0693 | 0.0517 | -0.0299 | -0.0515 | 0.0082 | 0.0203 | -0.0114 | 0.0307 | 0.0438 | 0.0108 | 0.0193 | 0.0253 | -0.0362 | – | -0.0684 | 0.0015 | 0.0671
CCc1c2c(nc3ccc(O)cc13)-c1cc3c(c(=O)n1C2)COC(=O)[C@]3(O)CC [SN-38] + O=C(c1cc(Cc2n[nH]c(=O)c3ccccc23)ccc1F)N1CCN(C(=O)C2CC2)CC1 [Olaparib] (first compound max 0.3 µM, 7x7, partner max 10 µM) | -0.0071 | 0.0429 | 0.141 | 0.0698 | -0.0023 | 0.053 | 0.0739 | 0.0342 | 0.0811 | 0.0785 | 0.0015 | -0.0279 | 0.0978 | 0.0387 | – | 0.0551 | 0.0125 | -0.0493 | 0.0271 | 0.0556
Cn1cnc2c(F)c(Nc3ccc(Br)cc3Cl)c(C(=O)NOCCO)cc21 [Selumetinib] + C[C@@H]1COCCN1C2=NC(=NC(=C2)C3(CC3)[S@](=N)(=O)C)C4=C5C=CNC5=NC=C4 [AZD6738] (first compound max 10 µM, 7x7, partner max 10 µM) | – | 0.0151 | -0.0052 | 0.0757 | 0.104 | 0.0061 | -0.0719 | -0.0273 | 0.106 | -0.0124 | 0.0599 | 0.1 | 0.0553 | 0.0782 | -0.0174 | -0.0521 | -0.0217 | -0.0364 | 0.0006 | 0.0369
